Columns and labels:
[1] = system: patients with eGFR <90 mL/min/1.73 m^2 for ≥3 months and hsCRP ≥2.0 mg/L; test: ANCHOR post-hoc: lipid parameters; type: in vivo, human; conditions: 4 g/day; 12 weeks; P<0.0001
Experimental: CVD-related (e.g., atherogenic) parameters were analyzed in a post-hoc study of 152 patients from the multi-center, placebo-controlled, randomized double-blind, 12-week study described in Example 1. These 152 patients have reduced kidney reduced function (e.g., eGFR<90 mL/min/1.73 m^2 for ≥3 months) and hsCRP≥2.0 mg/L.
Subjects: 72 patients were randomized to E-EPA and 80 patients were randomized to placebo. In total, atherogenic parameters were analyzed in all 152 patients, 54% of which were male and 99% of which were white. The mean age of the 152 patients was 64 years old.
The primary objective of this post-hoc study, was to determine if and how 4 g of daily of >96% E-EPA, compared to placebo, affects patients with reduced kidney function, elevated hsCRP (e.g, hsCRP≥2.0 mg/L), and high triglyceride levels. […] CVD-parameters were analyzed for median difference in percent change from baseline to week 12 in subjects receiving 4 g/day of E-EPA and those receiving the placebo.
Analysis: The median difference in lipid/lipoprotein, apolipoprotein, and inflammatory parameters were determined from baseline to week 12 for 4/g day of E-EPA compared to placebo.

[2] = Essential fatty acids in plasma and RBC by gas chromatography, 6-week AAMI study; type: in vivo, human
Experimental: Blood samples (10 mL) were collected at Visit 1 (screening) and at Visits 4, 5, and 6. Analysis was performed by MSR Lipid Analysis, Scottish Crop Research Institute, Dundee, UK. The screening sample acted as baseline for the EFA measurements. Lipid was extracted from plasma, serum, and RBC suspensions and converted into fatty acid methyl esters which were analyzed by gas chromatography to give fatty acid profiles as micrograms fatty acid per gram of sample (mFA/g) and normalized area percent.
RBC and plasma EFA data were collected at baseline, Day 14, 28, and 42 and summarized by visit for each treatment group. Change from baseline and percent change from baseline were also summarized. ANCOVA comparison of E-EPA dose groups and E-EPA versus placebo was performed.
Notable changes for these parameters occurred in the E-EPA treatment groups at Days 14, 28, and 42 compared to placebo.

CC/C=C\C/C=C\C/C=C\C/C=C\C/C=C\CCCC(=O)OCC [E-EPA, ethyl eicosapentaenoate]
reduction of triglycerides compared to placebo [1]: about 16.9%
AA Plasma Mean change from Baseline ([2]; 1 g daily, Day 14): -9.7 µg/g
AA RBC Mean change from Baseline ([2]; 1 g daily, Day 14): -8.1 µg/g
DGLA Plasma Mean change from Baseline ([2]; 1 g daily, Day 14): -10.4 µg/g
DGLA RBC Mean change from Baseline ([2]; 1 g daily, Day 14): -2.7 µg/g
DHA Plasma Mean change from Baseline ([2]; 1 g daily, Day 14): -6.4 µg/g
DHA RBC Mean change from Baseline ([2]; 1 g daily, Day 14): -4.6 µg/g
DPAn-3 Plasma Mean change from Baseline ([2]; 1 g daily, Day 14): 7.5 µg/g
DPAn-3 RBC Mean change from Baseline ([2]; 1 g daily, Day 14): 0.9 µg/g
AA Plasma Mean change from Baseline ([2]; 1 g daily, Day 28): -11.3 µg/g
AA RBC Mean change from Baseline ([2]; 1 g daily, Day 28): -17.0 µg/g
DGLA Plasma Mean change from Baseline ([2]; 1 g daily, Day 28): -10.6 µg/g
DGLA RBC Mean change from Baseline ([2]; 1 g daily, Day 28): -3.8 µg/g
DHA Plasma Mean change from Baseline ([2]; 1 g daily, Day 28): -6.6 µg/g
DHA RBC Mean change from Baseline ([2]; 1 g daily, Day 28): -6.4 µg/g
DPAn-3 Plasma Mean change from Baseline ([2]; 1 g daily, Day 28): 8.9 µg/g
DPAn-3 RBC Mean change from Baseline ([2]; 1 g daily, Day 28): 3.3 µg/g
AA Plasma Mean change from Baseline ([2]; 1 g daily, Day 42): -8.7 µg/g
AA RBC Mean change from Baseline ([2]; 1 g daily, Day 42): -14.2 µg/g
DGLA Plasma Mean change from Baseline ([2]; 1 g daily, Day 42): -9.4 µg/g
DGLA RBC Mean change from Baseline ([2]; 1 g daily, Day 42): -3.5 µg/g
DHA Plasma Mean change from Baseline ([2]; 1 g daily, Day 42): -5.4 µg/g
DHA RBC Mean change from Baseline ([2]; 1 g daily, Day 42): -7.0 µg/g
DPAn-3 Plasma Mean change from Baseline ([2]; 1 g daily, Day 42): 11.3 µg/g
DPAn-3 RBC Mean change from Baseline ([2]; 1 g daily, Day 42): 6.5 µg/g
AA Plasma Baseline Mean ([2]; 1 g daily, baseline): 202.5 µg/g
AA RBC Baseline Mean ([2]; 1 g daily, baseline): 171.2 µg/g
DGLA Plasma Baseline Mean ([2]; 1 g daily, baseline): 51.2 µg/g
DGLA RBC Baseline Mean ([2]; 1 g daily, baseline): 23.0 µg/g
DHA Plasma Baseline Mean ([2]; 1 g daily, baseline): 73.1 µg/g
DHA RBC Baseline Mean ([2]; 1 g daily, baseline): 66.5 µg/g
DPAn-3 Plasma Baseline Mean ([2]; 1 g daily, baseline): 21.1 µg/g
DPAn-3 RBC Baseline Mean ([2]; 1 g daily, baseline): 34.1 µg/g
AA Plasma LS Mean, 1 or 2 g versus 4 g ([2]; 1 g versus 4 g): 4.2 µg/g
AA RBC LS Mean, 1 or 2 g versus 4 g ([2]; 1 g versus 4 g): 8.4 µg/g
DGLA Plasma LS Mean, 1 or 2 g versus 4 g ([2]; 1 g versus 4 g): 3.7 µg/g
DGLA RBC LS Mean, 1 or 2 g versus 4 g ([2]; 1 g versus 4 g): 1.5 µg/g
DHA Plasma LS Mean, 1 or 2 g versus 4 g ([2]; 1 g versus 4 g): -0.8 µg/g
DHA RBC LS Mean, 1 or 2 g versus 4 g ([2]; 1 g versus 4 g): 1.0 µg/g
DPAn-3 Plasma LS Mean, 1 or 2 g versus 4 g ([2]; 1 g versus 4 g): -15.1 µg/g
DPAn-3 RBC LS Mean, 1 or 2 g versus 4 g ([2]; 1 g versus 4 g): -6.2 µg/g
AA Plasma Mean change from Baseline ([2]; 2 g daily, Day 14): -13.9 µg/g
AA RBC Mean change from Baseline ([2]; 2 g daily, Day 14): -3.1 µg/g
DGLA Plasma Mean change from Baseline ([2]; 2 g daily, Day 14): -14.1 µg/g
DGLA RBC Mean change from Baseline ([2]; 2 g daily, Day 14): -2.6 µg/g
DHA Plasma Mean change from Baseline ([2]; 2 g daily, Day 14): -5.4 µg/g
DHA RBC Mean change from Baseline ([2]; 2 g daily, Day 14): -2.0 µg/g
DPAn-3 Plasma Mean change from Baseline ([2]; 2 g daily, Day 14): 17.4 µg/g
DPAn-3 RBC Mean change from Baseline ([2]; 2 g daily, Day 14): 5.6 µg/g
AA Plasma Mean change from Baseline ([2]; 2 g daily, Day 28): 21.6 µg/g
AA RBC Mean change from Baseline ([2]; 2 g daily, Day 28): -14.1 µg/g
DGLA Plasma Mean change from Baseline ([2]; 2 g daily, Day 28): -16.2 µg/g
DGLA RBC Mean change from Baseline ([2]; 2 g daily, Day 28): -4.5 µg/g
DHA Plasma Mean change from Baseline ([2]; 2 g daily, Day 28): -8.1 µg/g
DHA RBC Mean change from Baseline ([2]; 2 g daily, Day 28): -6.2 µg/g
DPAn-3 Plasma Mean change from Baseline ([2]; 2 g daily, Day 28): 19.4 µg/g
DPAn-3 RBC Mean change from Baseline ([2]; 2 g daily, Day 28): 9.4 µg/g
AA Plasma Mean change from Baseline ([2]; 2 g daily, Day 42): -27.3 µg/g
AA RBC Mean change from Baseline ([2]; 2 g daily, Day 42): -18.8 µg/g
DGLA Plasma Mean change from Baseline ([2]; 2 g daily, Day 42): -17.3 µg/g
DGLA RBC Mean change from Baseline ([2]; 2 g daily, Day 42): -5.3 µg/g
DHA Plasma Mean change from Baseline ([2]; 2 g daily, Day 42): -6.0 µg/g
DHA RBC Mean change from Baseline ([2]; 2 g daily, Day 42): -6.3 µg/g
DPAn-3 Plasma Mean change from Baseline ([2]; 2 g daily, Day 42): 19.3 µg/g
DPAn-3 RBC Mean change from Baseline ([2]; 2 g daily, Day 42): 13.2 µg/g
AA Plasma Baseline Mean ([2]; 2 g daily, baseline): 227.3 µg/g
AA RBC Baseline Mean ([2]; 2 g daily, baseline): 172.8 µg/g
DGLA Plasma Baseline Mean ([2]; 2 g daily, baseline): 53.5 µg/g
DGLA RBC Baseline Mean ([2]; 2 g daily, baseline): 23.0 µg/g
DHA Plasma Baseline Mean ([2]; 2 g daily, baseline): 75.1 µg/g
DHA RBC Baseline Mean ([2]; 2 g daily, baseline): 64.8 µg/g
DPAn-3 Plasma Baseline Mean ([2]; 2 g daily, baseline): 19.7 µg/g
DPAn-3 RBC Baseline Mean ([2]; 2 g daily, baseline): 33.2 µg/g
AA Plasma LS Mean, 1 or 2 g versus 4 g ([2]; 2 g versus 4 g): 15.6 µg/g
AA RBC LS Mean, 1 or 2 g versus 4 g ([2]; 2 g versus 4 g): 9.8 µg/g
DGLA Plasma LS Mean, 1 or 2 g versus 4 g ([2]; 2 g versus 4 g): 2.5 µg/g
DGLA RBC LS Mean, 1 or 2 g versus 4 g ([2]; 2 g versus 4 g): 1.5 µg/g
DHA Plasma LS Mean, 1 or 2 g versus 4 g ([2]; 2 g versus 4 g): 1.5 µg/g
DHA RBC LS Mean, 1 or 2 g versus 4 g ([2]; 2 g versus 4 g): 1.0 µg/g
DPAn-3 Plasma LS Mean, 1 or 2 g versus 4 g ([2]; 2 g versus 4 g): -9.5 µg/g
DPAn-3 RBC LS Mean, 1 or 2 g versus 4 g ([2]; 2 g versus 4 g): -2.5 µg/g
AA Plasma Mean (SD) change from Baseline ([2]; 4 g daily, Day 14): −27.2 (28.89) μg/g
AA RBC Mean (SD) change from Baseline ([2]; 4 g daily, Day 14): −15.7 (26.76) μg/g
DGLA Plasma Mean change from Baseline ([2]; 4 g daily, Day 14): -22.9 µg/g
DGLA RBC Mean change from Baseline ([2]; 4 g daily, Day 14): -5.3 µg/g
DHA Plasma Mean change from Baseline ([2]; 4 g daily, Day 14): -10.3 µg/g
DHA RBC Mean change from Baseline ([2]; 4 g daily, Day 14): -6.9 µg/g
DPAn-3 Plasma Mean change from Baseline ([2]; 4 g daily, Day 14): 24.5 µg/g
DPAn-3 RBC Mean change from Baseline ([2]; 4 g daily, Day 14): 5.4 µg/g
AA Plasma Mean (SD) change from Baseline ([2]; 4 g daily, Day 28): −43.7 (32.24) μg/g
AA RBC Mean (SD) change from Baseline ([2]; 4 g daily, Day 28): −22.8 (29.56) μg/g
DGLA Plasma Mean change from Baseline ([2]; 4 g daily, Day 28): -24.2 µg/g
DGLA RBC Mean change from Baseline ([2]; 4 g daily, Day 28): -7.1 µg/g
DHA Plasma Mean change from Baseline ([2]; 4 g daily, Day 28): -13.5 µg/g
DHA RBC Mean change from Baseline ([2]; 4 g daily, Day 28): -8.7 µg/g
DPAn-3 Plasma Mean change from Baseline ([2]; 4 g daily, Day 28): 29.7 µg/g
DPAn-3 RBC Mean change from Baseline ([2]; 4 g daily, Day 28): 12.4 µg/g
AA Plasma Mean (SD) change from Baseline ([2]; 4 g daily, Day 42): −48.3 (22.20) μg/g
AA RBC Mean (SD) change from Baseline ([2]; 4 g daily, Day 42): −34.4 (31.44) μg/g
DGLA Plasma Mean change from Baseline ([2]; 4 g daily, Day 42): -22.5 µg/g
DGLA RBC Mean change from Baseline ([2]; 4 g daily, Day 42): -8.0 µg/g
DHA Plasma Mean change from Baseline ([2]; 4 g daily, Day 42): -13.8 µg/g
DHA RBC Mean change from Baseline ([2]; 4 g daily, Day 42): -13.8 µg/g
DPAn-3 Plasma Mean change from Baseline ([2]; 4 g daily, Day 42): 32.0 µg/g
DPAn-3 RBC Mean change from Baseline ([2]; 4 g daily, Day 42): 16.2 µg/g
AA Plasma Baseline Mean (SD) ([2]; 4 g daily, baseline): 220.9 (42.80) μg/g
AA RBC Baseline Mean (SD) ([2]; 4 g daily, baseline): 171.0 (25.17) μg/g
DGLA Plasma Baseline Mean ([2]; 4 g daily, baseline): 57.1 µg/g
DGLA RBC Baseline Mean ([2]; 4 g daily, baseline): 24.0 µg/g
DHA Plasma Baseline Mean ([2]; 4 g daily, baseline): 78.8 µg/g
DHA RBC Baseline Mean ([2]; 4 g daily, baseline): 68.3 µg/g
DPAn-3 Plasma Baseline Mean ([2]; 4 g daily, baseline): 21.7 µg/g
DPAn-3 RBC Baseline Mean ([2]; 4 g daily, baseline): 34.5 µg/g
